One assay addresses T1, KRAS G12S (Homo sapiens, UniProt P01116, G12S).
T1 construct: made in house; host or cells: E. coli, e.g. BL21 (DE3)
The experiment in a line: HTRF assay, KRAS G12S interaction with SOS1. Format: biochemical. To be noted: bins <500 nM / 500 nM to 1000 nM, read-out: Inhibition of KRAS G12S (IC50). (Time-resolved FRET reads energy transfer from a long-lived donor to a nearby acceptor.)

A further assay concerns the target T2, KRAS G12D (Homo sapiens, UniProt P01116, G12D).
T2 construct: made in house; host or cells: E. coli, e.g. BL21 (DE3)
The assay can be described thus: HTRF assay, KRAS G12D interaction with SOS1. Format: biochemical. Conditions: bins <500 nM / 500 nM to 1000 nM, read-out: Inhibition of KRAS G12D (IC50).

For another assay, the target named is T3, KRAS G12V (Homo sapiens, UniProt P01116, G12V).
T3 construct: made in house; host or cells: E. coli, e.g. BL21 (DE3)
The experiment in a line: HTRF assay, KRAS G12V interaction with SOS1. It is filed as biochemical. To be noted: bins <500 nM / 500 nM to 1000 nM, read-out: Inhibition of KRAS G12V (IC50).

The target in another assay is T4, KRAS WT (Homo sapiens, UniProt P01116).
T4 construct: made in house; host or cells: E. coli, e.g. BL21 (DE3)
The experiment in a line: HTRF assay, wildtype KRAS interaction with SOS1. It is filed as biochemical. To be noted: bins <500 nM / 500 nM to 1000 nM, read-out: Inhibition of KRAS WT (IC50).

The subject of another assay is MiaPaca2 cells. The experiment in a line: Ras cellular assay, growth of cells with K-Ras G12C mutation. Format: cell-based. Conditions: Homo sapiens, MIA PaCa-2; cell proliferation assay; bins ≤500 nM / >500 nM; read-out: Inhibition of MiaPaca2 Cells (IC50). An outline of the steps:
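Anchorage-independent growth: G12C-mutant MIA PaCa-2 plated in soft agar, time-zero plate read the next day when compound was dosed (final DMSO 0.3%). After growth to day 10, MTS-type absorbance at 490/660 nm relative to time zero gave IC50 via four-parameter fitting.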

What is called IC50 is the concentration at which inhibition is half-maximal.

Molecules are shown by their SMILES. Where only a bound is given, the exact number is not on record here.

T2 sequence (P01116 1-188 isoform P01116-2 G12D): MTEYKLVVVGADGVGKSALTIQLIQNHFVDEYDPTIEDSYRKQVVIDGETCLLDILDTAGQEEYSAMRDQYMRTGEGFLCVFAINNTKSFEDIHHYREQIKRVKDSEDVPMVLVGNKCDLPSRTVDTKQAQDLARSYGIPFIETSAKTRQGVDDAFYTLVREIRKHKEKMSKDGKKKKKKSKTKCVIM
T1 sequence (P01116 1-188 isoform P01116-2 G12S): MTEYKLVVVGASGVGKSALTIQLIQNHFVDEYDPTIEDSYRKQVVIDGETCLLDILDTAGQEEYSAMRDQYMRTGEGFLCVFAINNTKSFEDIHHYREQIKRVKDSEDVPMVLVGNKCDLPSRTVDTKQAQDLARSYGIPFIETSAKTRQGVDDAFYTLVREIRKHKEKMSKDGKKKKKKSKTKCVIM
T4 sequence (P01116 1-188 isoform P01116-2): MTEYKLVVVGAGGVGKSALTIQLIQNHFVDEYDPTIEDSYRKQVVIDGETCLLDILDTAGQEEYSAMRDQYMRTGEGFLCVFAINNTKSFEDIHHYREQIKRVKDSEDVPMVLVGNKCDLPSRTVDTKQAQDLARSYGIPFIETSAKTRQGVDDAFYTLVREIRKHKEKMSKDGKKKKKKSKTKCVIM
T3 sequence (P01116 1-188 isoform P01116-2 G12V): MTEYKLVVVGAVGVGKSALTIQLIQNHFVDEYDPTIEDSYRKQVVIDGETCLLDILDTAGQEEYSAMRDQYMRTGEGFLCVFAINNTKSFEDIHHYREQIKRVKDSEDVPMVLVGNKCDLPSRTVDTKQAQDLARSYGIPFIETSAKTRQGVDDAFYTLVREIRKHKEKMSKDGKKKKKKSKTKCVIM

For the compound `Cc1c(C#N)ncn1C(=O)N1CC[C@@]12CCN(c1nc(OC[C@@]34CCCN3C[C@H](F)C4)nc3c(F)c(-c4ccc(F)c5sc(N)c(C#N)c45)c(Cl)cc13)C2` [Compound 121, 1-((4R)-6-(7-(2-amino-3-cyano-7-fluorobenzo[b]thiophen-4-yl)-6-chloro-8-fluoro-2-(((2R,7aS)-2-fluorotetrahydro-1H-pyrrolizin-7a(5H)-yl)methoxy)quinazolin-4-yl)-1,6-diazaspiro[3.4]octane-1-carbonyl)-5-methyl-1H-imidazole-4-carbonitrile], the IC50 on KRAS G12S was less than 500 nM; at KRAS G12D, less than 500 nM; on KRAS G12V it was less than 500 nM; at KRAS WT, less than 500 nM; in the assay with MiaPaca2 cells, no more than 500 nM.
Turning to `Cc1nccn1C(=O)N1CC2(CCN(c3nc(OC[C@@]45CCCN4C[C@H](F)C5)nc4c(F)c(-c5ccc(F)c6sc(N)c(C#N)c56)c(Cl)cc34)C2)C1` [Compound 123, 2-amino-4-(6-chloro-8-fluoro-2-(((2R,7aS)-2-fluorotetrahydro-1H-pyrrolizin-7a(5H)-yl)methoxy)-4-(2-(2-methyl-1H-imidazole-1-carbonyl)-2,6-diazaspiro[3.4]octan-6-yl)quinazolin-7-yl)-7-fluorobenzo[b]thiophene-3-carbonitrile], the IC50 on KRAS G12S is less than 500 nM; at KRAS G12D, less than 500 nM; at KRAS G12V, less than 500 nM; at KRAS WT, less than 500 nM; in the assay on MiaPaca2 cells, no more than 500 nM.
`C[C@@H]1[C@H](N(C)c2nc(OC[C@@]34CCCN3C[C@H](F)C4)nc3c(F)c(-c4ccc(F)c5sc(N)c(C#N)c45)c(Cl)cc23)CCN1C(=O)n1ccnc1` [Compound 124, 4-(4-(((2R,3R)-1-(1H-imidazole-1-carbonyl)-2-methylpyrrolidin-3-yl)(methyl)amino)-6-chloro-8-fluoro-2-(((2R,7aS)-2-fluorotetrahydro-1H-pyrrolizin-7a(5H)-yl)methoxy)quinazolin-7-yl)-2-amino-7-fluorobenzo[b]thiophene-3-carbonitrile]: the half-inhibitory concentration (IC50) on KRAS G12S was less than 500 nM; at KRAS G12D, less than 500 nM; at KRAS G12V it was less than 500 nM; on KRAS WT it was less than 500 nM; in the assay on MiaPaca2 cells it was no more than 500 nM.
`C[C@@H]1[C@H](N(C)c2nc(OC[C@@]34CCCN3C[C@H](F)C4)nc3c(F)c(-c4ccc(F)c5sc(N)c(C#N)c45)c(Cl)cc23)CCN1C(=O)n1ccc(C#N)n1` [Compound 126, 1-((2R,3R)-3-((7-(2-amino-3-cyano-7-fluorobenzo[b]thiophen-4-yl)-6-chloro-8-fluoro-2-(((2R,7aS)-2-fluorotetrahydro-1H-pyrrolizin-7a(5H)-yl)methoxy)quinazolin-4-yl)(methyl)amino)-2-methylpyrrolidine-1-carbonyl)-1H-pyrazole-3-carbonitrile]: the IC50 at KRAS G12S is less than 500 nM; at KRAS G12D, less than 500 nM; on KRAS G12V, less than 500 nM; on KRAS WT, less than 500 nM; in the assay with MiaPaca2 cells it was no more than 500 nM.
Consider `Cc1nc(C)n(C(=O)N2CC[C@@H](N(C)c3nc(OC[C@@]45CCCN4C[C@H](F)C5)nc4c(F)c(-c5ccc(F)c6sc(N)c(C#N)c56)c(Cl)cc34)[C@H]2C)c1C` [Compound 127, 2-amino-4-(6-chloro-8-fluoro-2-(((2R,7aS)-2-fluorotetrahydro-1H-pyrrolizin-7a(5H)-yl)methoxy)-4-(methyl((2R,3R)-2-methyl-1-(2,4,5-trimethyl-1H-imidazole-1-carbonyl)pyrrolidin-3-yl)amino)quinazolin-7-yl)-7-fluorobenzo[b]thiophene-3-carbonitrile], for which the IC50 at KRAS G12S was less than 500 nM; on KRAS G12D, less than 500 nM; at KRAS G12V it was less than 500 nM; at KRAS WT it was less than 500 nM; with MiaPaca2 cells, no more than 500 nM.
For `Cc1cn(C(=O)N2CC(F)(CN(C)c3nc(OC[C@@]45CCCN4C[C@H](F)C5)nc4c(F)c(-c5ccc(F)c6sc(N)c(C#N)c56)c(Cl)cc34)C2)cn1` [Compound 128, 2-amino-4-(6-chloro-8-fluoro-4-(((3-fluoro-1-(4-methyl-1H-imidazole-1-carbonyl)azetidin-3-yl)methyl)(methyl)amino)-2-(((2R,7aS)-2-fluorotetrahydro-1H-pyrrolizin-7a(5H)-yl)methoxy)quinazolin-7-yl)-7-fluorobenzo[b]thiophene-3-carbonitrile], the IC50 is less than 500 nM at KRAS G12S; less than 500 nM at KRAS G12D; less than 500 nM on KRAS G12V; less than 500 nM at KRAS WT; no more than 500 nM in the assay on MiaPaca2 cells.
With `CCN(c1nc(OC[C@@]23CCCN2C[C@H](F)C3)nc2c(F)c(-c3ccc(F)c4sc(N)c(C#N)c34)c(Cl)cc12)[C@@H]1CCN(C(=O)n2cc(Cl)nc2C)[C@@H]1C` [Compound 130, 2-amino-4-(6-chloro-4-(((2R,3R)-1-(4-chloro-2-methyl-1H-imidazole-1-carbonyl)-2-methylpyrrolidin-3-yl)(ethyl)amino)-8-fluoro-2-(((2R,7aS)-2-fluorotetrahydro-1H-pyrrolizin-7a(5H)-yl)methoxy)quinazolin-7-yl)-7-fluorobenzo[b]thiophene-3-carbonitrile], the IC50 at KRAS G12S is less than 500 nM; at KRAS G12D it was less than 500 nM; at KRAS G12V, less than 500 nM; on KRAS WT it was less than 500 nM; in the assay with MiaPaca2 cells, no more than 500 nM.
Regarding `Cc1ncn(C(=O)N2C[C@]3(CCCCN(c4nc(OC[C@@]56CCCN5C[C@H](F)C6)nc5c(F)c(-c6ccc(F)c7sc(N)c(C#N)c67)c(Cl)cc45)C3)[C@H]2C)c1C` [Compound 131, 2-amino-4-(6-chloro-4-((1R,4R)-2-(4,5-dimethyl-1H-imidazole-1-carbonyl)-1-methyl-2,6-diazaspiro[3.6]decan-6-yl)-8-fluoro-2-(((2R,7aS)-2-fluorotetrahydro-1H-pyrrolizin-7a(5H)-yl)methoxy)quinazolin-7-yl)-7-fluorobenzo[b]thiophene-3-carbonitrile], the IC50 at KRAS G12S is less than 500 nM; on KRAS G12D, less than 500 nM; on KRAS G12V, less than 500 nM; at KRAS WT, less than 500 nM; with MiaPaca2 cells, no more than 500 nM.
Consider `CC[C@@H]1[C@H](N(C)c2nc(OC[C@@]34CCCN3C[C@H](F)C4)nc3c(F)c(-c4ccc(F)c5sc(N)c(C#N)c45)c(Cl)cc23)CCN1C(=O)n1cnc(F)n1` [Compound 134, 2-amino-4-(6-chloro-4-(((2R,3R)-2-ethyl-1-(3-fluoro-1H-1,2,4-triazole-1-carbonyl)pyrrolidin-3-yl)(methyl)amino)-8-fluoro-2-(((2R,7aS)-2-fluorotetrahydro-1H-pyrrolizin-7a(5H)-yl)methoxy)quinazolin-7-yl)-7-fluorobenzo[b]thiophene-3-carbonitrile], for which the IC50 is less than 500 nM at KRAS G12S; less than 500 nM on KRAS G12D; less than 500 nM at KRAS G12V; less than 500 nM on KRAS WT; no more than 500 nM in the assay with MiaPaca2 cells.
Regarding `C[C@@H]1[C@H](N(C)c2nc(OC[C@@]34CCCN3C[C@H](F)C4)nc3c(F)c(-c4ccc(F)c5sc(N)c(C#N)c45)c(Cl)cc23)CCN1C(=O)n1cnc(C2CC2)c1` [Compound 135, 2-amino-4-(6-chloro-4-(((2R,3R)-1-(4-cyclopropyl-1H-imidazole-1-carbonyl)-2-methylpyrrolidin-3-yl)(methyl)amino)-8-fluoro-2-(((2R,7aS)-2-fluorotetrahydro-1H-pyrrolizin-7a(5H)-yl)methoxy)quinazolin-7-yl)-7-fluorobenzo[b]thiophene-3-carbonitrile], the IC50 at KRAS G12S was less than 500 nM; on KRAS G12D, less than 500 nM; at KRAS G12V it was less than 500 nM; at KRAS WT it was less than 500 nM; in the assay on MiaPaca2 cells, no more than 500 nM.
Take `CCN(c1nc(OC[C@@]23CCCN2C[C@H](F)C3)nc2c(F)c(-c3ccc(F)c4sc(N)c(C#N)c34)c(Cl)cc12)[C@@H]1CCN(C(=O)n2ccc(C#N)n2)[C@@H]1C` [Compound 136, 1-((2R,3R)-3-((7-(2-amino-3-cyano-7-fluorobenzo[b]thiophen-4-yl)-6-chloro-8-fluoro-2-(((2R,7aS)-2-fluorotetrahydro-1H-pyrrolizin-7a(5H)-yl)methoxy)quinazolin-4-yl)(ethyl)amino)-2-methylpyrrolidine-1-carbonyl)-1H-pyrazole-3-carbonitrile]: the IC50 on KRAS G12S is less than 500 nM; on KRAS G12D, less than 500 nM; at KRAS G12V, less than 500 nM; at KRAS WT it was less than 500 nM; in the assay on MiaPaca2 cells it was no more than 500 nM.
As for `CCN(c1nc(OC[C@@]23CCCN2C[C@H](F)C3)nc2c(F)c(-c3ccc(F)c4sc(N)c(C#N)c34)c(Cl)cc12)[C@@H]1CCN(C(=O)n2cc(C)nc2Cl)[C@@H]1C` [Compound 137, 2-amino-4-(6-chloro-4-(((2R,3R)-1-(2-chloro-4-methyl-1H-imidazole-1-carbonyl)-2-methylpyrrolidin-3-yl)(ethyl)amino)-8-fluoro-2-(((2R,7aS)-2-fluorotetrahydro-1H-pyrrolizin-7a(5H)-yl)methoxy)quinazolin-7-yl)-7-fluorobenzo[b]thiophene-3-carbonitrile], the IC50 at KRAS G12S was less than 500 nM; on KRAS G12D, less than 500 nM; on KRAS G12V, less than 500 nM; on KRAS WT, less than 500 nM; with MiaPaca2 cells, no more than 500 nM.
